# Assay results taken from patent US8232308B2, “Methods for treating a disease in which Rho kinase is involved” (UBE Industries, Ltd., priority 2003, dated 2012).
# Where a name gives a salt, the structure may show the parent alone.
row,melting point,Structure (SMILES)
1,182 to 184 °C (dec.),"CCN(CC)c1c(-c2ccc(C(C)(C)N)cc2)ccc2[nH]ncc12 (as salt: hydrochloride) [Compound 5-31, 5-[4-(1-Amino-1-methylethyl)phenyl]-4-diethylamino-1H-indazole trihydrochloride]"
2,202 to 203 °C (dec.),"CC(C)(N)c1ccc(-c2ccc3[nH]ncc3c2CCO)cc1 (as salt: hydrochloride) [Compound 5-32, 5-[4-(1-Amino-1-methylethyl)phenyl]-4-(2-hydroxy-ethyl)-1H-indazole dihydrochloride]"
3,270 to 272 °C,"CC(C)(N)c1ccc(-c2ccc3[nH]ncc3c2C#N)cc1 (as salt: hydrochloride) [Compound 5-36, 5-[4-(1-Amino-1-methylethyl)phenyl]-4-cyano-1H-indazole monohydrochloride]"
4,265 to 269 °C,"CC(C)(N)c1ccc(-c2ccc3cn[nH]c3c2)cc1 (as salt: hydrochloride) [Compound 5-37, 6-[4-(1-Amino-1-methylethyl)phenyl]-1H-indazole dihydrochloride]"
5,225 to 230 °C,"CC(=O)n1ncc2ccc(-c3ccc(C(C)(C)N)cc3)cc21 (as salt: hydrochloride) [Compound 5-38, 1-Acetyl-6-[4-(1-amino-1-methylethyl)phenyl]-1H-indazole dihydrochloride]"
6,244 to 247 °C (dec.),"CC(C)(N)c1ccc(-c2ccc3[nH]ncc3c2-n2cccc2)cc1 (as salt: hydrochloride) [Compound 5-39, 5-[4-(1-Amino-1-methylethyl)phenyl]-4-(pyrrol-1-yl)-1H-indazole dihydrochloride]"
7,242 to 246 °C (dec.),"CC(C)Oc1c(-c2ccc(C(C)(C)N)cc2)ccc2[nH]ncc12 (as salt: hydrochloride) [Compound 5-40, 5-[4-(1-Amino-1-methylethyl)phenyl]-4-isopropoxy-1H-indazole dihydrochloride]"
8,205 to 208 °C (dec.),"CC(C)(N)c1ccc(-c2ccc3[nH]ncc3c2N2CCCCC2)cc1 (as salt: hydrochloride) [Compound 5-41, 5-[4-(1-Amino-1-methylethyl)phenyl]-4-(piperidin-1-yl)-1H-indazole trihydrochloride]"
9,218 to 224 °C (dec.),"CC(C)(N)c1ccc(-c2ccc3[nH]ncc3c2N2CCCC2)cc1 (as salt: hydrochloride) [Compound 5-42, 5-[4-(1-Amino-1-methylethyl)phenyl]-4-(pyrrolidin-1-yl)-1H-indazole trihydrochloride]"
10,268 to 272 °C (dec.),"CC(C)(N)c1ccc(-c2ccc3[nH]ncc3c2N2CCOCC2)cc1 (as salt: hydrochloride) [Compound 5-43, 5-[4-(1-Amino-1-methylethyl)phenyl]-4-(morpholin-4-yl)-1H-indazole trihydrochloride]"
11,258 to 261 °C (dec.),"COc1c(-c2ccc(C(C)(C)N)cc2)ccc2[nH]ncc12 (as salt: hydrochloride) [Compound 5-44, 5-[4-(1-Amino-1-methylethyl)phenyl]-4-methoxy-1H-indazole dihydrochloride]"
12,195 to 201 °C (dec.),"COc1c(-c2ccc(C(C)(C)N)cn2)ccc2[nH]ncc12 (as salt: hydrochloride) [Compound 5-45, 5-[5-(1-Amino-1-methylethyl)pyridin-2-yl]-4-methoxy-1H-indazole trihydrochloride]"
13,195 to 203 °C (dec.),"COc1c(-c2ccc(C3(N)CCCC3)cn2)ccc2[nH]ncc12 (as salt: hydrochloride) [Compound 5-46, 5-[5-(1-Aminocyclopentyl)pyridin-2-yl]-4-methoxy-1H-indazole trihydrochloride]"
14,198 to 201 °C,"CCOc1c(-c2ccc(C(C)(C)N)cn2)ccc2[nH]ncc12 (as salt: hydrochloride) [Compound 5-47, 5-[5-(1-Amino-1-methylethyl)pyridin-2-yl]-4-ethoxy-1H-indazole trihydrochloride]"
15,194 to 198 °C (dec.),"CC(C)(N)c1ccc(-c2ccc3[nH]ncc3c2O)cc1 (as salt: hydrochloride) [Compound 5-48, 5-[4-(1-Amino-1-methylethyl)phenyl]-4-hydroxy-1H-indazole dihydrochloride]"
16,248 to 256 °C (dec.),"CCOc1c(-c2ccc(C(C)(C)N)cc2)ccc2[nH]ncc12 (as salt: hydrochloride) [Compound 5-49, 5-[4-(1-Amino-1-methylethyl)phenyl]-4-ethoxy-1H-indazole dihydrochloride]"
17,211 to 213 °C (dec.),"CC(C)Oc1c(-c2ccc(C(C)(C)N)cn2)ccc2[nH]ncc12 (as salt: hydrochloride) [Compound 5-50, 5-[5-(1-Amino-1-methylethyl)pyridin-2-yl]-4-isopropoxy-1H-indazole trihydrochloride]"

row,melting point,Structure (SMILES)
1,204 to 206 °C (dec.),"CCC(N)(CC)c1ccc(-c2ccc3[nH]ncc3c2OC)nc1 (as salt: hydrochloride) [Compound 5-51, 5-[5-(1-Amino-1-ethylpropyl)pyridin-2-yl]-4-methoxy-1H-indazole trihydrochloride]"
2,237 to 243 °C (dec.),"CCCOc1c(-c2ccc(C(C)(C)N)cc2)ccc2[nH]ncc12 (as salt: hydrochloride) [Compound 5-52, 5-[4-(1-Amino-1-methylethyl)phenyl]-4-n-propoxy-1H-indazole dihydrochloride]"
3,227 to 230 °C (dec.),"CC(C)(N)c1ccc(-c2ccc3[nH]ncc3c2OC(F)F)cc1 (as salt: hydrochloride) [Compound 5-53, 5-[4-(1-Amino-1-methylethyl)phenyl]-4-difluoro-methoxy-1H-indazole dihydrochloride]"
4,205 to 207 °C (dec.),"C=CCOc1c(-c2ccc(C(C)(C)N)cc2)ccc2[nH]ncc12 (as salt: hydrochloride) [Compound 5-57, 4-Allyloxy-5-[4-(1-amino-1-methylethyl)phenyl]-1H-indazole dihydrochloride]"
5,194 to 198 °C (dec.),"CCCOc1c(-c2ccc(C(C)(C)N)cn2)ccc2[nH]ncc12 (as salt: hydrochloride) [Compound 5-58, 5-[5-(1-Amino-1-methylethyl)pyridin-2-yl]-4-n-propoxy-1H-indazole trihydrochloride]"
6,170 to 173 °C,"CC(C)(N)c1ccc(-c2ccc3[nH]ncc3c2OC(F)F)nc1 (as salt: hydrochloride) [Compound 5-59, 5-[5-(1-Amino-1-methylethyl)pyridin-2-yl]-4-difluoromethoxy-1H-indazole trihydrochloride]"
7,200 to 202 °C (dec.),"CCOc1c(-c2ccc(C(N)(CC)CC)cn2)ccc2[nH]ncc12 (as salt: hydrochloride) [Compound 5-60, 5-[5-(1-Amino-1-ethylpropyl)pyridin-2-yl]-4-ethoxy-1H-indazole trihydrochloride]"
8,266 to 269 °C (dec.),"CC(C)(N)c1ccc(-c2ccc3[nH]ncc3c2-c2ccncc2)cc1 (as salt: hydrochloride) [Compound 5-61, 5-[4-(1-Amino-1-methylethyl)phenyl]-4-(pyridin-4-yl)-1H-indazole trihydrochloride]"
9,210 to 214 °C (dec.),"CC(C)(N)c1ccc(-c2ccc3[nH]ncc3c2-c2ccccn2)cc1 (as salt: hydrochloride) [Compound 5-63, 5-[4-(1-Amino-1-methylethyl)phenyl]-4-(pyridin-2-yl)-1H-indazole trihydrochloride]"
10,259 to 267 °C (dec.),"CC(C)(N)c1ccc(-c2ccc3[nH]ncc3c2-c2cn[nH]c2)cc1 (as salt: hydrochloride) [Compound 5-64, 5-[4-(1-Amino-1-methylethyl)phenyl]-4-(pyrazol-4-yl)-1H-indazole trihydrochloride]"
11,212 to 214 °C (dec.),"CC(C)(N)c1ccc(-c2ccc3[nH]ncc3c2-c2cnco2)cc1 (as salt: hydrochloride) [Compound 5-66, 5-[4-(1-Amino-1-methylethyl)phenyl]-4-(oxazol-5-yl)-1H-indazole dihydrochloride]"
12,256 to 258 °C (dec.),"CC(C)(N)c1ccc(-c2ccc3[nH]ncc3c2-c2ccno2)cc1 (as salt: hydrochloride) [Compound 5-68, 5-[4-(1-Amino-1-methylethyl)phenyl]-4-(isoxazol-5-yl)-1H-indazole dihydrochloride]"
13,255 to 260 °C (dec.),"CC(C)(N)c1ccc(-c2ccc3[nH]ncc3c2O)nc1 (as salt: hydrochloride) [Compound 5-69, 5-[5-(1-Amino-1-methylethyl)pyridin-2-yl]-4-hydroxy-1H-indazole trihydrochloride]"
14,203 to 205 °C (dec.),"CC(C)(N)c1ccc(-c2ccc3[nH]ncc3c2OC2CC2)nc1 (as salt: hydrochloride) [Compound 5-70, 5-[5-(1-Amino-1-methylethyl)pyridin-2-yl]-4-cyclo-propyloxy-1H-indazole trihydrochloride]"
15,207 to 209 °C (dec.),"CCC(N)(CC)c1ccc(-c2ccc3[nH]ncc3c2OC2CC2)nc1 (as salt: hydrochloride) [Compound 5-71, 5-[5-(1-Amino-1-ethylpropyl)pyridin-2-yl]-4-cyclo-propyloxy-1H-indazole trihydrochloride]"
16,234 to 237 °C,"CCC(N)(CC)c1ccc(-c2ccc3[nH]ncc3c2OC(F)F)cc1 (as salt: hydrochloride) [Compound 5-72, 5-[4-(1-Amino-1-ethylpropyl)phenyl]-4-difluoro-methoxy-1H-indazole dihydrochloride]"
17,221 to 225 °C (dec.),"C=C(C)c1n[nH]c2ccc(-c3ccc(C(C)(C)N)cc3)cc12 (as salt: trifluoroacetate) [Compound 5-15, 5-[4-(1-Amino-1-methylethyl)phenyl]-3-(1-methyl-vinyl)-1H-indazole monotrifluoroacetate]"

row,Structure (SMILES),melting point
1,"CCCCOc1c(-c2ccc(C(C)(C)N)cc2)ccc2[nH]ncc12 (as salt: hydrochloride) [Compound 5-55, 5-[4-(1-Amino-1-methylethyl)phenyl]-4-n-butoxy-1H-indazole dihydrochloride]",227 to 229 °C (dec.)
